# Reference: PubChem BioAssay AID330 (DTP/NCI, 2004)
# “And” between values parts separate entries of the source, which are not always exact repeats. Equal entries are not always repeated. Inconclusive results and toxic doses are left out.
# Tested on: P388 leukemia ip, CD2F1 mice, survival T/C
# Experiment: NCI In Vivo Anticancer Drug Screen. Data for tumor model P388 Leukemia (intraperitoneal) in CD2F1 (CDF1) mice
# Details: endpoint: median survival time, higher = longer survival
# In short: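 Mice carrying the transplanted tumor received test compound or vehicle. Survival was recorded in each group, and the value is the treated-group measurement divided by that of the vehicle-treated control group.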
# [1] = dose: 60.0 mg/kg/injection, schedule: Q01DX005 (ip), vehicle: saline with Tween-80
# [2] = dose: 120.0 mg/kg/injection, schedule: Q01DX005 (ip), vehicle: saline with Tween-80
# [3] = dose: 240.0 mg/kg/injection, schedule: Q01DX005 (ip), vehicle: saline with Tween-80
# [4] = dose: 50.0 mg/kg/injection, schedule: Q01DX005 (ip), vehicle: saline with Tween-80
# [5] = dose: 100.0 mg/kg/injection, schedule: Q01DX005 (ip), vehicle: saline with Tween-80
# [6] = dose: 200.0 mg/kg/injection, schedule: Q01DX005 (ip), vehicle: saline with Tween-80
# [7] = dose: 50.0 mg/kg/injection, schedule: Q04DX003 (ip), vehicle: saline with Tween-80
# [8] = dose: 100.0 mg/kg/injection, schedule: Q04DX003 (ip), vehicle: saline with Tween-80
# [9] = dose: 200.0 mg/kg/injection, schedule: Q04DX003 (ip), vehicle: saline with Tween-80
# [10] = dose: 50.0 mg/kg/injection, schedule: Q01DX005 (ip), vehicle: Klucel (hydroxypropylcellulose) (HPC)
# [11] = dose: 100.0 mg/kg/injection, schedule: Q01DX005 (ip), vehicle: Klucel (hydroxypropylcellulose) (HPC)
# [12] = dose: 60.0 mg/kg/injection, schedule: Q01DX005 (ip), vehicle: Klucel (hydroxypropylcellulose) (HPC)
# [13] = dose: 120.0 mg/kg/injection, schedule: Q01DX005 (ip), vehicle: Klucel (hydroxypropylcellulose) (HPC)
# [14] = dose: 240.0 mg/kg/injection, schedule: Q01DX005 (ip), vehicle: Klucel (hydroxypropylcellulose) (HPC)
# [15] = dose: 12.5 mg/kg/injection, schedule: Q01DX005 (ip), vehicle: Klucel (hydroxypropylcellulose) (HPC)
# [16] = dose: 400.0 mg/kg/injection, schedule: Q04DX003 (ip), vehicle: saline with Tween-80
# [17] = dose: 100.0 mg/kg/injection, schedule: Q01DX001 (ip), vehicle: saline with Tween-80
# [18] = dose: 50.0 mg/kg/injection, schedule: Q01DX009 (ip), vehicle: saline
# [19] = dose: 100.0 mg/kg/injection, schedule: Q01DX009 (ip), vehicle: saline
# [20] = dose: 200.0 mg/kg/injection, schedule: Q01DX009 (ip), vehicle: saline
# [21] = dose: 60.0 mg/kg/injection, schedule: Q01DX005 (ip), vehicle: saline
# [22] = dose: 120.0 mg/kg/injection, schedule: Q01DX005 (ip), vehicle: saline
# [23] = dose: 240.0 mg/kg/injection, schedule: Q01DX005 (ip), vehicle: saline
smiles,measurement,setting,value
ClCc1ccc2ccc3ccc(CCl)nc3c2n1,T/C,[1],103 % of control
same,T/C,[2],100 % of control
same,T/C,[3],104 % of control
CCCOC(=O)C1(CCl)CCC(=O)O1 (stereo unspecified),T/C,"dose: 50.0 mg/kg/injection, schedule: Q01DX009 (ip), vehicle: Klucel (hydroxypropylcellulose) (HPC)",101 % of control
same,T/C,"dose: 100.0 mg/kg/injection, schedule: Q01DX009 (ip), vehicle: Klucel (hydroxypropylcellulose) (HPC)",103 % of control
same,T/C,"dose: 200.0 mg/kg/injection, schedule: Q01DX009 (ip), vehicle: Klucel (hydroxypropylcellulose) (HPC)",103 % of control
CCC(=O)OCc1c(Cl)nc2n1CCS2,T/C,"dose: 100.0 mg/kg/injection, schedule: Q01DX001 (ip), vehicle: Klucel (hydroxypropylcellulose) (HPC)",100 % of control
same,T/C,"dose: 200.0 mg/kg/injection, schedule: Q01DX001 (ip), vehicle: Klucel (hydroxypropylcellulose) (HPC)",100 % of control
O=C1CSC(C2CC=CCC2)N1c1nncs1 (stereo unspecified),T/C,[4],100 % of control
same,T/C,[5],91 % of control
same,T/C,[6],90 % of control
CCOC(=O)NC(=Nc1cccc(C(=O)c2ccc3nc(NC(=O)OCC)[nH]c3c2)c1)NC(=O)OCC,T/C,"dose: 15.0 mg/kg/injection, schedule: Q01DX005 (ip), vehicle: saline with Tween-80",89 % of control
same,T/C,"dose: 30.0 mg/kg/injection, schedule: Q01DX005 (ip), vehicle: saline with Tween-80",94 % of control
CC(=O)OCC1OC(OC2=C(CC=C(C)C)C(=O)c3ccccc3C2=O)C(OC(C)=O)C(OC(C)=O)C1OC(C)=O (stereo unspecified),T/C,"dose: 25.0 mg/kg/injection, schedule: Q04DX003 (ip), vehicle: saline with Tween-80",100 % of control
same,T/C,[7],102 % of control
same,T/C,[8],94 % of control
same,T/C,[9],114 % of control
COc1ccc2sc(-c3ccccc3)cc(=O)c2c1,T/C,[10],100 % of control
same,T/C,[11],101 % of control
same,T/C,"dose: 200.0 mg/kg/injection, schedule: Q01DX005 (ip), vehicle: Klucel (hydroxypropylcellulose) (HPC)",101 % of control
CS(=O)(=O)NCCSSCCNS(C)(=O)=O,T/C,[4],106 % of control
same,T/C,[5],103 % of control
same,T/C,[6],112 % of control
OC1COC(O)(CNCCc2c[nH]c3ccc(OCc4ccccc4)cc23)C(O)C1O (stereo unspecified),T/C,[12],101 % of control
same,T/C,[13],99 % of control
same,T/C,[14],87 % of control
CC(C)NCC(O)c1ccc(NS(C)(=O)=O)cc1 (stereo unspecified),T/C,"dose: 50.0 mg/kg/injection, schedule: Q01DX005 (ip), vehicle: saline",108 % of control
same,T/C,"dose: 100.0 mg/kg/injection, schedule: Q01DX005 (ip), vehicle: saline",100 % of control
same,T/C,"dose: 200.0 mg/kg/injection, schedule: Q01DX005 (ip), vehicle: saline",104 % of control
CC(C)(C)c1ccc(OCCSCCOc2ccc(C(C)(C)C)cc2)cc1,T/C,"dose: 50.0 mg/kg/injection, schedule: Q01DX009 (ip), vehicle: saline with Tween-80",90 % of control
same,T/C,"dose: 100.0 mg/kg/injection, schedule: Q01DX009 (ip), vehicle: saline with Tween-80",90 % of control
same,T/C,"dose: 200.0 mg/kg/injection, schedule: Q01DX009 (ip), vehicle: saline with Tween-80",90 % of control
COc1cc(C=Nc2cccc(C(=O)O)c2)ccc1N(CCCl)CCCl,T/C,"dose: 25.0 mg/kg/injection, schedule: Q01DX009 (ip), vehicle: saline",122 % of control
same,T/C,[7],150 % of control
same,T/C,"dose: 66.0 mg/kg/injection, schedule: Q04DX003 (ip), vehicle: saline with Tween-80",272 % of control
same,T/C,[8],181 % of control
CCN1C(=O)C=CC1=O,T/C,"dose: 1.56 mg/kg/injection, schedule: Q04DX003 (ip), vehicle: saline with Tween-80",109 % of control and 98 % of control
same,T/C,"dose: 3.12 mg/kg/injection, schedule: Q04DX003 (ip), vehicle: saline with Tween-80",99 % of control and 96 % of control
same,T/C,"dose: 6.25 mg/kg/injection, schedule: Q04DX003 (ip), vehicle: saline with Tween-80",99 % of control and 95 % of control
CCOC(=O)CC1=NC(=Nc2ccc(Cl)c(Cl)c2)SC1,T/C,[4],103 % of control
same,T/C,[5],104 % of control
same,T/C,[6],100 % of control
C1CCC2(CC1)SC1(CCCCC1)SC1(CCCCC1)S2,T/C,"dose: 100.0 mg/kg/injection, schedule: Q04DX003 (ip), vehicle: other",100 % of control
same,T/C,"dose: 200.0 mg/kg/injection, schedule: Q04DX003 (ip), vehicle: other",90 % of control
same,T/C,"dose: 400.0 mg/kg/injection, schedule: Q04DX003 (ip), vehicle: other",95 % of control
COc1ccc2c(c1)CCC1C2CCC2(C)C1CCC2(C)N(C)C (stereo unspecified),T/C,"dose: 6.25 mg/kg/injection, schedule: Q01DX005 (ip), vehicle: Klucel (hydroxypropylcellulose) (HPC)",102 % of control
same,T/C,[15],102 % of control
O=C(Nc1ccc(Nc2ccc(NC(=O)c3ccccc3)c3c2C(=O)c2ccccc2C3=O)c2c1C(=O)c1ccccc1C2=O)c1ccccc1,T/C,[8],95 % of control
same,T/C,[9],100 % of control
same,T/C,[16],100 % of control
NS(=O)(=O)c1ccc(NC(=O)Oc2ccc([N+](=O)[O-])cc2)cc1,T/C,[17],100 % of control
same,T/C,"dose: 200.0 mg/kg/injection, schedule: Q01DX001 (ip), vehicle: saline with Tween-80",100 % of control
same,T/C,"dose: 400.0 mg/kg/injection, schedule: Q01DX001 (ip), vehicle: saline with Tween-80",104 % of control
COc1ccc(C2CC3CCC(C2O)N3C)cc1 (stereo unspecified),T/C,[10],103 % of control
same,T/C,[11],96 % of control
c1ccc2c(c1)[nH]c1nc3ncncc3nc12,T/C,[18],100 % of control
same,T/C,[19],100 % of control
same,T/C,[20],100 % of control
CS(=O)(=O)OC[C@@H](O)[C@@H](O)COS(C)(=O)=O,T/C,[18],112 % of control
same,T/C,"dose: 100.0 mg/kg/injection, schedule: Q01DX009 (ip), vehicle: saline sonified",110 % of control
same,T/C,[19],99 % of control
same,T/C,"dose: 200.0 mg/kg/injection, schedule: Q01DX009 (ip), vehicle: saline sonified",100 % of control
same,T/C,[20],99 % of control
same,T/C,"dose: 400.0 mg/kg/injection, schedule: Q01DX009 (ip), vehicle: saline sonified",100 % of control
CCCCCCCCCCCC(=O)NCCOCCOCCOCCOCCOCCOCCOCCOCCO (tested in a mixture with another compound),T/C,[4],98 % of control
same,T/C,[5],102 % of control
same,T/C,[6],96 % of control
NC(=O)CC(NC(c1ccccc1)(c1ccccc1)c1ccccc1)C(=O)ON1C(=O)CCC1=O (stereo unspecified),T/C,"dose: 25.0 mg/kg/injection, schedule: Q01DX001 (ip), vehicle: saline with Tween-80",104 % of control
same,T/C,"dose: 50.0 mg/kg/injection, schedule: Q01DX001 (ip), vehicle: saline with Tween-80",100 % of control
same,T/C,[17],100 % of control
ClCCN(CCCl)c1ccc(/C=N/Nc2ccc3ccccc3n2)cc1,T/C,[8],110 % of control
same,T/C,[9],109 % of control
same,T/C,[16],106 % of control
CC(=O)O[C@H]1/C=C(\C)[C@@H](O)C/C=C(\C)CC(OC(=O)c2ccccc2)[C@H]1C(C)C (stereo partly specified),T/C,[15],98 % of control
same,T/C,"dose: 25.0 mg/kg/injection, schedule: Q01DX005 (ip), vehicle: Klucel (hydroxypropylcellulose) (HPC)",98 % of control
same,T/C,[10],100 % of control
same,T/C,[11],95 % of control
CN(C)C1CS(=O)(=O)OC2=C1CCOc1ccccc12 (stereo unspecified),T/C,[12],97 % of control
same,T/C,[13],91 % of control
same,T/C,[14],89 % of control
COc1nc(NC2OC(CO)C(O)C(O)C2O)c(/C=N/O)c(=O)n1C (stereo unspecified),T/C,[21],99 % of control
same,T/C,[22],103 % of control
same,T/C,[23],99 % of control
C=C(Cl)C(O)CNCCCC (stereo unspecified),T/C,[4],110 % of control
same,T/C,[5],110 % of control
OC1COC(Sc2ncc[nH]2)C(O)C1O (stereo unspecified),T/C,[1],97 % of control
same,T/C,[21],96 % of control
same,T/C,[2],97 % of control
same,T/C,[22],97 % of control
same,T/C,[3],94 % of control
same,T/C,[23],97 % of control
